Assay results taken from the supplement of paper PMC13380429.

Columns and labels:
Conditions in all cases: 72 h
Calu-3 [1] = assay: drug sensitivity score (DSS) for viability; higher = more toxic; extreme values may be limits of the assay
HepG2 [2] = assay: as above
Calu-3 [3] = assay: relative viability EC50 (midpoint between 100% and the lowest measured viability); higher = less toxic
HepG2 [4] = assay: as above
Calu-3 [5] = assay: cell viability relative to DMSO; higher = less toxic
HepG2 [6] = assay: as above
Vero E6 [7] = assay: drug sensitivity score (DSS) for viability; higher = more toxic; extreme values may be limits of the assay
Caco-2 [8] = assay: as above
U2OS [9] = assay: as above
Vero E6 [10] = assay: cell viability relative to DMSO; higher = less toxic
Caco-2 [11] = assay: as above
U2OS [12] = assay: as above
Vero E6 [13] = assay: relative viability EC50 (midpoint between 100% and the lowest measured viability); higher = less toxic
Caco-2 [14] = assay: as above
U2OS [15] = assay: as above

Row | Compound | drug sensitivity score (Calu-3 [1]) | drug sensitivity score (HepG2 [2]) | relative viability EC50 (Calu-3 [3]) | relative viability EC50 (HepG2 [4]) | cell viability (Calu-3 [5]; 1 nM) | cell viability (Calu-3 [5]; 10 nM) | cell viability (Calu-3 [5]; 100 nM) | cell viability (Calu-3 [5]; 1000 nM) | cell viability (Calu-3 [5]; 10000 nM) | cell viability (HepG2 [6]; 1 nM) | cell viability (HepG2 [6]; 10 nM) | cell viability (HepG2 [6]; 100 nM) | cell viability (HepG2 [6]; 1000 nM) | cell viability (HepG2 [6]; 10000 nM) | drug sensitivity score (Vero E6 [7]) | drug sensitivity score (Caco-2 [8]) | drug sensitivity score (U2OS [9]) | cell viability (Vero E6 [10]; 1 nM) | cell viability (Vero E6 [10]; 10 nM) | cell viability (Vero E6 [10]; 100 nM) | cell viability (Vero E6 [10]; 1000 nM) | cell viability (Vero E6 [10]; 10000 nM) | cell viability (Caco-2 [11]; 1 nM) | cell viability (Caco-2 [11]; 10 nM) | cell viability (Caco-2 [11]; 100 nM) | cell viability (Caco-2 [11]; 1000 nM) | cell viability (Caco-2 [11]; 10000 nM) | cell viability (U2OS [12]; 1 nM) | cell viability (U2OS [12]; 10 nM) | cell viability (U2OS [12]; 100 nM) | cell viability (U2OS [12]; 1000 nM) | cell viability (U2OS [12]; 10000 nM) | relative viability EC50 (Vero E6 [13]) | relative viability EC50 (Caco-2 [14]) | relative viability EC50 (U2OS [15])
1 | CC(C)(NS(=O)(=O)c1ccc(Oc2ccc(F)cc2)cc1)C(=O)NO | 0 | 0.3 | > 10 µM | > 10 µM | 106% | 96.3% | 98.9% | 97.9% | 94.3% | 110% | 111% | 98.3% | 110% | 80.7% |  |  |  |  |  |  |  |  |  |  |  |  |  |  |  |  |  |  |  |  | 
2 | CCc1cc(-c2[nH]nc(C)c2-c2ccc3c(c2)OCCO3)c(O)cc1O | 3.7 | 8 |  | 1.68 µM | 93.2% | 94.6% | 101% | 89.7% | 58.8% | 94.7% | 91.1% | 104% | 81.1% | 11.1% | 2.1 | 4.1 | 1.6 | 99.4% | 104% | 101% | 95.9% | 67.9% | 103% | 92% | 98% | 89.7% | 53% | 99.2% | 94.9% | 98.3% | 99.7% | 65.6% |  |  | 
3 | Cc1nc2sccn2c(=O)c1CCN1CCC(=C(c2ccccc2)c2ccc(F)cc2)CC1 |  | 0 |  | > 10 µM |  |  |  |  |  | 104% | 96.3% | 100% | 96.9% | 95.8% | 0 | 0 | 0 | 102% | 101% | 107% | 100% | 94.5% | 95.3% | 86.7% | 97% | 98.4% | 97.2% | 95.6% | 97.6% | 97.3% | 98.7% | 95% | > 10 µM | > 10 µM | > 10 µM
4 | O=C(NOCC1CC1)c1ccc(F)c(F)c1Nc1ccc(I)cc1Cl |  | 14.6 |  | 0.277 µM |  |  |  |  |  | 96.9% | 89.3% | 84.2% | 31.6% | 19.4% | 7.9 | 5.1 | 0.4 | 94.5% | 98.5% | 84.4% | 65.9% | 50.6% | 97.4% | 94.6% | 89.3% | 75.3% | 65.6% | 101% | 97.1% | 94.9% | 91.4% | 85.3% |  |  | > 10 µM
5 | CC(C)[C@@H](C(=O)Nc1nccs1)c1ccc(Cl)cc1 [4-CMTB] | 1.8 | 1.8 |  |  | 111% | 107% | 102% | 97.8% | 68.1% | 95.7% | 95.4% | 94.1% | 99.7% | 63.3% | 0 |  | 0.1 | 107% | 107% | 98% | 96.4% | 92.9% |  |  |  |  |  | 104% | 108% | 106% | 102% | 85.5% | > 10 µM |  | > 10 µM
6 | Cc1nc(NC(=O)N2CCC[C@H]2C(N)=O)sc1-c1csc(C(C)(C)C)n1 [A66] |  | 0 |  | > 10 µM |  |  |  |  |  | 84.2% | 96% | 84% | 89.8% | 73.3% | 0 | 1 | 0 | 98.5% | 96.5% | 95.3% | 101% | 87.9% | 98.5% | 87.5% | 95.8% | 92% | 78.9% | 103% | 97.4% | 98.6% | 93% | 88.7% | > 10 µM | > 10 µM | > 10 µM
7 | CCCn1c(=O)c2[nH]c(C3CCCC3)nc2n(CCC)c1=O [DPCPX] |  | 0 |  | > 10 µM |  |  |  |  |  | 102% | 105% | 99.8% | 101% | 91.5% | 0 | 0 | 0 | 106% | 107% | 98.2% | 99.8% | 89.1% | 105% | 106% | 106% | 106% | 93.3% | 100% | 102% | 99.8% | 96.6% | 100% | > 10 µM | > 10 µM | > 10 µM
8 | COC(=O)N[C@@H](C)CNc1nccc(-c2cn(C(C)C)nc2-c2cc(Cl)cc(NS(C)(=O)=O)c2F)n1 [Encorafenib (LGX818)] |  | 14.2 |  | 0.37 µM |  |  |  |  |  | 96.2% | 91.7% | 79.7% | 38.4% | 11.1% | 0.7 | 2.4 | 1.1 | 106% | 106% | 109% | 116% | 71.6% | 103% | 89.5% | 97% | 88.4% | 69.5% | 101% | 104% | 106% | 94.2% | 82% |  |  | > 10 µM
9 | CSc1nc2ccc3nc(NC(=O)C(c4ccccc4)c4ccccc4)sc3c2s1 [Gue-1654] |  | 0 |  | > 10 µM |  |  |  |  |  | 96.4% | 106% | 98.3% | 102% | 92.6% | 0 | 0.7 | 0 | 104% | 107% | 99.6% | 97.8% | 105% | 100% | 100% | 94.7% | 93.6% | 80.5% | 100% | 95.9% | 98.8% | 97.1% | 98.2% | > 10 µM | > 10 µM | > 10 µM
10 | CCC(CC)Nc1nc(C)c(-c2ccc(OC(F)(F)F)cc2OC)nc1OC [NGD-98-2] |  | 0 |  | > 10 µM |  |  |  |  |  | 102% | 98.8% | 90.8% | 100% | 96.3% | 0 | 0.6 | 0 | 99.9% | 104% | 100% | 99.1% | 99.2% | 94.8% | 92.9% | 96.3% | 90.9% | 81.6% | 98.7% | 98.5% | 95.1% | 99.3% | 97.7% | > 10 µM | > 10 µM | > 10 µM
11 | Cc1ccc(-c2nn(C(C)(C)CNC(=O)c3ncccc3C)c3ncnc(N)c23)cc1 [WEHI-345-analog] | 2.8 | 4.5 |  | 2.49 µM | 99.6% | 110% | 86% | 97.8% | 52.2% | 109% | 97.5% | 99.7% | 94.6% | 34.2% | 4.1 | 2 | 3 | 100% | 97.7% | 99.8% | 95.7% | 37.2% | 96.3% | 100% | 95.5% | 101% | 58.9% | 98.3% | 108% | 94.3% | 104% | 38.4% | 2.62 µM |  | 3.51 µM
12 | COc1cc(Nc2ncc3c(n2)-c2ccc(Cl)cc2C(c2c(F)cccc2OC)=NC3)ccc1C(=O)O [alisertib] | 1.6 | 13.1 | > 10 µM |  | 106% | 105% | 98.1% | 88.4% | 78.8% | 102% | 98% | 58.7% | 66.6% | 61.4% | 4.1 | 3.5 | 5.7 | 96.3% | 103% | 84.4% | 82.7% | 67% | 102% | 90% | 83% | 87.9% | 72.8% | 102% | 99.7% | 81.5% | 78.2% | 58.6% |  |  | 
13 | CCOC(=O)OC(C)OC1=C(C(=O)Nc2ccccn2)N(C)S(=O)(=O)c2ccccc21 (configuration not stated) [ampiroxicam] |  | 0 |  | > 10 µM |  |  |  |  |  | 91.9% | 102% | 101% | 101% | 103% |  | 0 | 0 |  |  |  |  |  | 94.6% | 99.9% | 86.5% | 96.9% | 97.3% | 97.2% | 102% | 93.9% | 98% | 95% |  | > 10 µM | > 10 µM
14 | O=C1[O][SbH]23[O]C(=O)C([O]2)C2[O][SbH]4([O]C(=O)C([O]4)C1[O]3)[O]C2=O [antimonyl] |  | 3.4 |  | 2.48 µM |  |  |  |  |  | 96.3% | 105% | 101% | 95.7% | 48% | 0 | 2.8 | 0.5 | 98.7% | 103% | 106% | 107% | 102% | 106% | 94.7% | 99.2% | 84.7% | 71.5% | 95.6% | 97.1% | 97.6% | 96.5% | 84.8% | > 10 µM |  | > 10 µM
15 | CNC(=O)[C@H](Cc1ccccc1)NC(=O)[C@H](CC(C)C)[C@H](CSc1cccs1)C(=O)NO [batimastat] | 3.8 | 0 |  | > 10 µM | 92.9% | 96.2% | 89.4% | 82.9% | 65.5% | 98.2% | 95.6% | 99% | 90.9% | 93.6% | 1.4 | 0.3 | 0 | 93.4% | 97.7% | 92.3% | 84.4% | 83.8% | 94.1% | 105% | 92.8% | 94.2% | 85% | 94.3% | 105% | 97% | 98.4% | 90.1% | > 10 µM | > 10 µM | > 10 µM
16 | COC(=O)c1cc(OC)c2c(c1-c1c(CO)cc(OC)c3c1OCO3)OCO2 [bicyclol] |  | 0 |  | > 10 µM |  |  |  |  |  | 90.5% | 97.8% | 92.1% | 108% | 100% | 0 | 0 | 0 | 108% | 105% | 104% | 99.9% | 100% | 89.9% | 98.7% | 104% | 101% | 101% | 101% | 97.6% | 97.8% | 98.2% | 94.8% | > 10 µM | > 10 µM | > 10 µM
